In test [1] the test system is 3'-biotinylated minihelix (Mh; pMini3bpUG) (RNA, hairpin) GAUCUGAAUGCGGAAACGCGCCAC
In words: biolayer interferometry. Conditions: Mg2+ 10 mM, NH4+ 100 mM (ammonium acetate); 20 mM HEPES pH 7.4, DMSO, 30°C; compound 15.6-500 µM.

For test [2], the target named is T1, RNase P holoenzyme from Thermotoga maritima (Thermotoga maritima, UniProt Q9X1H4).
T1 construct: made in house
T1 sequence (Q9X1H4 1-117): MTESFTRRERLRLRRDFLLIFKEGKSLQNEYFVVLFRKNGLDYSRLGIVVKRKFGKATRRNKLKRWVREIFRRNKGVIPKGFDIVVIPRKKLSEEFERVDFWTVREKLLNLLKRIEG
The test can be described thus: Real-time fluorescence-based RNase P activity assay with bipartite pre-tRNA substrate. It is filed as biochemical. Conditions: fluorescent bipartite pre-tRNA substrate, holoenzyme 33 nM, 10% PEG 200 in place of DMSO. How it is done: (§1) The reconstitution of the RNase P holoenzyme was performed as described in ([40],[19]). This protocol produces a homogeneous and functional ribozyme that can be crystallized by mixing P RNA and P protein in a 1:1.1 molar ratio in 1× TH buffer (33 mM Tris–HCl, 66 mM HEPES, pH 7.4) and 400 mM ammonium acetate (AmOAc). The mixture was heated to 95°C for 2 min in a water bath, then chilled on ice for 2 min, after which MgCl2 was added to a final concentration of 100 mM. […] This higher concentration was used in all experiments described herein. The holoenzyme was further incubated at 50°C for 10 min and 37°C for 40 min. The final concentration of holoenzyme was 333 nM (35.6 μg/ml of P RNA and 4.7 μg/ml of P protein).
The bipartite pre-tRNA substrate derived from pre-tRNA^Phe from T. maritima (Supplementary Figure S13) was designed for the ease of chemical synthesis and conceived from the fact that the anticodon loop is not required for RNase P recognition (Reiter et al.). As for the Mh substrate, fluorescent bipartite pre-tRNA was coupled to Black Hole Quencher 1 (BHQ1) at the 5′-end of the 5′ oligo, and to Alexa Fluor 488 at the 3′-end of the 3′ oligo (see Supplementary Table S1). The probes were purchased from Integrated DNA Technologies (IDT). A requested scale of 250 nmol yielded 27.4 nmol (0.36 mg) for the 5′ oligo and 3.8 nmol (50 μg) for the 3′ fluorescent oligo. Before use, the probes were diluted from a 100 μM stock (dissolved in water) and assembled by mixing and heating to 3.6 μM in activity buffer L (Tris–HCl pH 7.4 33 mM, HEPES 66 mM, 100 mM AmOAc and 10 mM MgCl2).
Reactions were performed in a total volume of 20 μl. Pipetting was done by hand using multichannel pipettes. First, an 18 μl reaction mixture containing 16.5 μl of activity buffer (H for Mh or L supplemented with 10% PEG 200 for bipartite pre-tRNA) and 270 nM (Mh) or 135 nM (bipartite pre-tRNA) (1.5 or 0.7 μl of the 3.6 μM stock) of the fluorescent substrate probe was pre-incubated on ice for at least 5 m in a black polystyrene 384-well microtiter microplate with a flat transparent bottom (Corning ref 3540). The holoenzyme was then added at a final concentration of 33 nM (2 μl of a 333 nM stock) in 1× TH buffer and mixed. Kinetic activity was monitored in a Synergy MX Multimode Detector (BioTek) at 37°C with rapid agitation. At least 20 readings were taken per well every 15 s. The probe was excited at 485 nm, and its emission was monitored at 535 nm with an integration time of 1 s. From the plots of relative fluorescent units (RFU) versus time, linear regression was used to determine the slopes in the linear portion of the curves, using at least 12 data points to obtain initial velocities. Non-linear fitting to obtain the Michaelis–Menten parameters was performed using GraphPad Prism® 6.01 software. […]

Test [3] addresses T1, RNase P holoenzyme from Thermotoga maritima. The test can be described thus: Real-time fluorescence-based (FRET) RNase P activity assay with minihelix (Mh) substrate. In kind it is biochemical. Conditions: fluorescent Mh substrate 270 nM, holoenzyme 33 nM, 10% DMSO, 37°C, 400 mM AmOAc, 100 mM MgCl2. On the procedure:
as §1
The minihelix (Mh) substrate (Figure 1A) was adopted from a previously characterized RNase P substrate, pMini3bpUG ([32],[33]) and coupled to either Black Hole Quencher 1 (BHQ1) or Black Hole Quencher 2 (BHQ2) at the 5′-end and Alexa Fluor 488 at the 3′-end. This probe was purchased either from Sigma-Aldrich or Integrated DNA Technologies (IDT). A requested scale of […] yielded between 6.3 and 20 nmol (57.5 to 181 μg, enough for 1300–4000 reactions depending on the experimental substrate concentration). Before use, the minihelix was diluted from a 100 μM stock (dissolved in water) to 3.6 μM in activity buffer H (33 mM Tris–HCl, 66 mM HEPES, pH 7.4, 400 mM AmOAc and 100 mM MgCl2).
Reactions were performed in a total volume of 20 μl. Pipetting was done by hand using multichannel pipettes. First, an 18 μl reaction mixture containing 16.5 μl of activity buffer (H for Mh or L supplemented with 10% PEG 200 for bipartite pre-tRNA) and 270 nM (Mh) or 135 nM (bipartite pre-tRNA) (1.5 or 0.7 μl of the 3.6 μM stock) of the fluorescent substrate probe was pre-incubated on ice for at least 5 m in a black polystyrene 384-well microtiter microplate with a flat transparent bottom (Corning ref 3540). The holoenzyme was then added at a final concentration of 33 nM (2 μl of a 333 nM stock) in 1× TH buffer and mixed. Kinetic activity was monitored in a Synergy MX Multimode Detector (BioTek) at 37°C with rapid agitation. At least 20 readings were taken per well every 15 s. The probe was excited at 485 nm, and its emission was monitored at 535 nm with an integration time of 1 s. From the plots of relative fluorescent units (RFU) versus time, linear regression was used to determine the slopes in the linear portion of the curves, using at least 12 data points to obtain initial velocities. Non-linear fitting to obtain the Michaelis–Menten parameters was performed using GraphPad Prism® 6.01 software.
Supplementary Figure 3. FRET assays of RNase P with the fluorescent substrate are reproducible. (A) Representative plots of kinetic assays performed in a single run. The standard assay (SA), (+), was performed at 37° C in a total volume of 20 µL and contained RNase P holoenzyme at 33 nM, substrate minihelix (Mh) at 270 nM, 10% DMSO and activity buffer (AB).
The negative control assay (-) contained 100 mM CaCl2 in place of MgCl2. Ten to twelve wells were monitored simultaneously in a typical assay. (B) Zoomed view of the linear region of the kinetic assays shown in panel A. Fluorescence readings were performed every 15-20 seconds.
Linear regression calculations were done using the GraphPad Prism 7 software. (C) The coefficient Z’-factor (1) was used as an indicator of reproducibility and was calculated based on the relative fluorescence units (RFU) in the plateau phase (taken at 20 minutes). The Z’-factor has a […]
presented in this work were either measured in triplicate or confirmed in subsequent assays. (D) […]
assay is robust. The IC50 values reported in Figures 1C and 2 were calculated according to this kinetic parameter. There is a negative drift in fluorescence in the case of the negative control.
However, it should be noted that the mean value of it (-279) is much smaller than the signal of the […]
positive control (3397). […]

Take `CN(C)c1ccc(C(=C2C=CC(=[N+](C)C)C=C2)c2ccc(N(C)C)cc2)cc1` [Gentian violet, tris(4-(dimethylamino)phenyl)methylium chloride, reference compound]: in test [1], the KD stood at 8 µM. The IC50 in test [2] came out at 16.2 ± 2.1 µM; in test [3], 7.3 ± 1.6 µM.

These data come from paper PMC6614837 (Nucleic Acids Research, 2019).
